According to patent US12180226B2, “Spirotricycle RIPK1 inhibitors and methods of uses thereof” (Merck Sharp & Dohme LLC, priority 2021, dated 2024):

Molecular target: RIPK1 (recombinant GST-RIPK1 kinase domain, residues 1-327) (Homo sapiens (Human), UniProt Q13546)
Test: RIPK1-ADP-Glo Enzymatic Assay
Type: biochemical
Settings: ADP-Glo; 25 nM GST-RIPK1, 300 μM ATP; assay lower limit ~25 nM; read-out: RIPK1 V0 Ec50
How it was run: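 Compounds titrated 10-pt 1:3 from 100000 nM top (1% DMSO); 30 min preinc w/ 25 nM Sf21-expressed enzyme, RT; start w/ ATP (300 μM final) + dephos-MBP (3 μM); 150 min; ADP-Glo lumi; 4-param fit → EC50.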

Chain of RIPK1 (recombinant GST-RIPK1 kinase domain, residues 1-327) (Q13546 1-327): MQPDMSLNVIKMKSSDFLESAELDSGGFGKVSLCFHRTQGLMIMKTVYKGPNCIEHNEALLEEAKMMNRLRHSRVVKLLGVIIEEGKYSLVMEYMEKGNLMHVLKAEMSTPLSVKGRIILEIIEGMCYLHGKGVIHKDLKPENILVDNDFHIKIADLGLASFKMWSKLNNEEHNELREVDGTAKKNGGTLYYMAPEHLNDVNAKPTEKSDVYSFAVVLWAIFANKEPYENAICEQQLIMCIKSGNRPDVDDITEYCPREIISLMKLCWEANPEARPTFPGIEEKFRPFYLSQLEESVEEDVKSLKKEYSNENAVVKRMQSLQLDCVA

SMILES	EC50 [nM]
CCOc1cccc(C(=O)N2CCC3(CC2)O[C@@H]2CC[C@@H](c4cccc(F)c4)N2C3=O)c1 [Example 6.121, (5′S,7a′R)-1-(3-ethoxy-benzene-1-carbonyl)-5′-(3-fluorophenyl)-tetrahydro-3′H-spiro [piperidine-4,2′-pyrrolo[2,1-b][1,3]oxazol]-3′-one]	< 25
Cc1nc(N2CCC3(CC2)O[C@@H]2CC[C@@H](c4ccccc4F)N2C3=O)ccc1C#N [Example 4.105, 6-((5′S,7a′R)-5′-(2-fluorophenyl)-3′-oxotetrahydro-3′H-spiro[piperidine-4,2′-pyrrolo[2,1-b]oxazol]-1-yl)-2-methylnicotinonitrile]	< 25
Cc1cncc(C(=O)N2CCC3(CC2)O[C@@H]2CC[C@@H](c4cc(F)cc(F)c4)N2C3=O)n1 [Example 6.4, (5′S,7a′R)-5′-(3,5-difluorophenyl)-1-(6-methylpyrazine-2-carbonyl)tetrahydro-3′H-spiro[piperidine-4,2′-pyrrolo[2,1-b] [1,3]oxazol]-3′-one]	760
O=C(c1ccnc2ncnn12)N1CCC2(CC1)O[C@@H]1CC[C@@H](c3cc(F)cc(F)c3)N1C2=O [Example 6.76, (5′S,7a′R)-5′-(3,5-difluorophenyl)-1-([1,2,4]triazolo[1,5-a]pyrimidine-7-car-bonyl)tetrahydro-3′H-spiro[piperidine-4,2′-pyrrolo[2,1-b] [1,3]oxazol]-3′-one]	182
O=C(c1ccco1)N1CCC2(CC1)O[C@@H]1CC[C@@H](c3cc(F)cc(F)c3)N1C2=O [Example 5.50, (5′S,7a′R)-5′-(3,5-difluoro-phenyl)-1-(furan-2-carbon-yl)tetrahydro-3′H-spiro [piperidine-4,2′-pyrrolo-[2,1-b]oxazol]-3′-one]	< 25
Cn1nc(N2CCC3(CC2)O[C@@H]2CC[C@@H](c4ccccc4)N2C3=O)ccc1=O [Example 11.7, (5′S,7a′R)-1-(1-methyl-6-oxo-1,6-dihydropyridazin-3-yl)-5′-phenyltetrahydro-3′H-spiro[piperidine-4,2′-pyrrolo[2,1-b][1,3]oxazol]-3′-one]	91.3
O=C1N2[C@@H](CC[C@H]2c2ccccc2)OC12CCN(c1ncc(-c3ncco3)c(C(F)F)n1)CC2 [Example 21.3, (5′S,7a′R)-1-[4-(difluoromethyl)-5-(1,3-oxazol-2-yl)pyrimidin-2-yl]-5′-phenyltetrahydro-3′H-spiro[piperidine-4,2′-pyrrolo[2,1-b][1,3]oxazol]-3′-one]	< 25
O=C(c1cscn1)N1CCC2(CC1)O[C@@H]1CC[C@@H](c3cc(F)cc(F)c3)N1C2=O [Example 5.44]	33.1
COC(=O)c1c(C)cc(N2CCC3(CC2)O[C@@H]2CC[C@@H](c4ccccc4)N2C3=O)nc1C#N [Example 4.192, methyl 2-cyano-4-methyl-6-[(5′S,7a′R)-3′-oxo-5′-phenyltetrahydro-1H,3′H-spiro[piperidine-4,2′-pyrrolo[2,1-b] [1,3]oxazol]-1-yl] pyridine-3-carboxylate]	54.4
Cc1ccc([C@@H]2CC[C@H]3OC4(CCN(C(=O)c5ccccc5)CC4)C(=O)N32)c(F)c1 [Example 17.11, (5′S,7a′R)-1-benzoyl-5′-(2-fluoro-4-methylphenyl)tetrahydro-3′H-spiro[piperidine-4,2′-pyrrolo[2,1-b]oxazol]-3′-one]	< 25
O=C(c1cccc(N2CCCC2=O)c1)N1CCC2(CC1)O[C@@H]1CC[C@@H](c3cc(F)cc(F)c3)N1C2=O [Example 6.56, (5′S,7a′R)-5′-(3,5-difluorophenyl)-1-[3-(2-oxopyrrolidin-1-yl)benzene-1-carbon-yl]tetrahydro-3′H-spiro[piperidine-4,2′-pyrrolo[2,1-b][1,3]-oxazol]-3′-one]	< 25
CC1CN(c2ccnc3ccnn23)CCC12O[C@@H]1CC[C@@H](c3ccccc3)N1C2=O (stereo partly drawn) [Example 4.246, (4R,5′S,7a′R)-3-methyl-5′-phenyl-1-(pyrazolo[1,5-a]pyrimidin-7-yl)tetrahydro-3′H-spiro[piperidine-4,2′-pyrrolo[2,1-b] [1,3]oxazol]-3′-one]	< 25
O=C1N2[C@@H](CC[C@H]2c2cc(F)cc(F)c2)OC12CCN(c1ccc(-c3ncco3)c3ncnn13)CC2 [Example 21.1, (5′S,7a′R)-5′-(3,5-Difluorophenyl)-1-(8-(oxazol-2-yl)-[1,2,4]triazolo[1,5-a]pyridin-5-yl)tetrahydro-3′H-spiro[piperidine-4,2′-pyrrolo[2,1-b]oxazol]-3′-one]	< 25
O=C(c1cc(F)ccc1F)N1CCC2(CC1)O[C@@H]1CC[C@@H](c3cc(F)cc(F)c3)N1C2=O [Example 5.1, (5′S,7a′R)-1-(2,5-Difluorobenzoyl)-5′-(3,5-difluorophenyl)tetrahydro-3′H-spiro[piperidine-4,2′-pyrrolo[2,1-b]oxazol]-3′-one]	< 25
C#Cc1cccc(C(=O)N2CCC3(CC2)O[C@@H]2CC[C@@H](c4cc(F)cc(F)c4)N2C3=O)c1 [Example 5.25, (5′S,7a′R)-5′-(3,5-difluoro-phenyl)-1-(3-ethynyl-benzoyl)tetrahydro-3′H-spiro[piperidine-4,2′-pyrrolo[2,1-b]oxazol]-3′-one]	< 25
O=C1N2[C@@H](CC[C@H]2c2cc(F)cc(F)c2)OC12CCN(c1ncc(F)c(C(F)F)n1)CC2 [Example 4.66, (5′S,7a′R)-1-[4-(difluoromethyl)-5-fluoropyrimidin-2-yl]-5′-(3,5-difluorophenyl)tetrahydro-3′H-spiro[piperidine-4,2′-pyrrolo[2,1-b] [1,3]oxazol]-3′-one]	38.4
O=C(c1nc(Br)ccc1F)N1CCC2(CC1)O[C@@H]1CC[C@@H](c3cc(F)cc(F)c3)N1C2=O [Example 6.82]	< 25
O=C1N2[C@H](CC[C@@H]2c2ccccc2)SC12CCN(c1ccnc3ccnn13)CC2 [Example 4.115, (5′R,7a′S)-5′-phenyl-1-(pyrazolo[1,5-a]pyrimidin-7-yl)tetrahydro-3′H-spiro[piperidine-4,2′-pyrrolo[2,1-b]thiazol]-3′-one]	180
Cc1nc(N2CCC3(CC2)O[C@@H]2CC[C@@H](c4cc(F)cc(F)c4)N2C3=O)ncc1F [Example 4.61, (5′S,7a′R)-5′-(3,5-difluorophenyl)-1-(5-fluoro-4-methylpyrimidin-2-yl)tetrahydro-3′H-spiro[piperidine-4,2′-pyrrolo[2,1-b] [1,3]oxazol]-3′-one]	53.4
O=C1N2[C@@H](CO[C@H]2c2cc(F)cc(F)c2)CC12CCN(c1ccnc3ccnn13)CC2 (stereo in doubt) [Example 4.147, 3′-(3,5-difluorophenyl)-1-(pyrazolo[1,5-a]pyrimidin-7-yl)dihydro-1′H,3′H,5′H-spiro[piperidine-4,6′-pyrrolo[1,2-c] [1,3]oxazol]-5′-one]	< 25
O=C1N2[C@@H](CC[C@H]2c2ccccc2)OC12CCN(c1ccc(C(F)F)c3ncnn13)CC2 [Example 4.269, (5′S,7a′R)-1-[8-(difluoromethyl)[1,2,4]triazolo[1,5-a]pyridin-5-yl]-5′-phenyltetrahydro-3′H-spiro[piperidine-4,2′-pyrrolo[2,1-b] [1,3]oxazol]-3′-one]	< 25
COc1cc(N2CCC3(CC2)O[C@@H]2CC[C@@H](c4cc(F)cc(F)c4)N2C3=O)ncn1 [Example 4.11, (5′S,7a′R)-5′-(3,5-difluorophenyl)-1-(6-methoxypyrimidin-4-yl)tetrahydro-3′H-spiro[piperidine-4,2′-pyrrolo[2,1-b] [1,3]oxazol]-3′-one]	< 25
O=C(c1ccccc1)N1CCC2(CC1)SC1CC[C@H](c3cc(F)cc(F)c3)N1C2=O (stereo partly drawn) [Example 1.21, (5′R)-1-benzoyl-5′-(3,5-difluorophenyl)tetrahydro-3′H-spiro[piperidine-4,2′-pyrrolo[2,1-b]thiazol]-3′-one]	501
O=C1N2[C@@H](CC[C@H]2c2ccccc2)OC12CCN(c1ccc(OC3CCC3)nn1)CC2 [Example 11.9, (5′S,7a′R)-1-[6-(cyclobutyloxy)pyridazin-3-yl]-5′-phenyltetrahydro-3′H-spiro[piperidine-4,2′-pyrrolo[2,1-b][1,3]oxazol]-3′-one]	907
O=C(c1cc(C(F)(F)F)cnn1)N1CCC2(CC1)O[C@@H]1CC[C@@H](c3cc(F)cc(F)c3)N1C2=O [Example 6.34, (5′S,7a′R)-5′-(3,5-difluorophenyl)-1-[5-(trifluoromethyl)pyrid-azine-3-carbonyl] tetrahydro-3′H-spiro [piperidine-4,2′-pyrrolo[2,1-b][1,3]oxazol]-3′-one]	550
O=C(c1coc2ccccc12)N1CCC2(CC1)O[C@@H]1CC[C@@H](c3cc(F)cc(F)c3)N1C2=O [Example 5.70]	< 25
CCOc1cnc(N2CCC3(CC2)O[C@@H]2CC[C@@H](c4cc(F)cc(F)c4)N2C3=O)nc1 [Example 4.57, (5′S,7a′R)-5′-(3,5-difluorophenyl)-1-(5-ethoxypyrimidin-2-yl)tetrahydro-3′H-spiro[piperidine-4,2′-pyrrolo[2,1-b] [1,3]oxazol]-3′-one]	243
O=C1N2[C@@H](CC[C@H]2c2cc(F)cc(F)c2)OC12CN(c1cccc3ncnn13)C2 [Example 4.135, (5′S,7a′R)-5′-(3,5-difluorophenyl)-1-([1,2,4]triazolo[1,5-a]pyridin-5-yl)tetrahydro-3′H-spiro[azetidine-3,2′-pyrrolo[2,1-b] [1,3]oxazol]-3′-one]	63.7
N#Cc1cc(F)cc([C@@H]2CC[C@H]3OC4(CCN(c5ccnc6c(F)cnn56)CC4)C(=O)N32)c1 [Example 4.121, 3-fluoro-5-[(5′S,7a′R)-1-(3-fluoropyrazolo[1,5-a]pyrimidin-7-yl)-3′-oxotetrahydro-3′H-spiro[piperidine-4,2′-pyrrolo[2,1-b] [1,3]oxazol]-5′-yl]benzonitrile]	< 25
